Structures are written as SMILES.

Series [1] can be described thus: Intra-tumoral pharmacokinetics bioanalytical assay. Conditions: BID oral, 21 days; four parameter non-linear regression; FIG. 4C. The format is in vivo, female BALB/c nude mice. As to the method: Intra-tumoral Pharmacokinetics Bioanalytical Assay: Tumors were collected at 1 h and 12 h post the last dose and cut into 3 pieces. One piece of the tumor was weighted and snap frozen for drug exposure analysis. On the assay day, 3 volumes of H2O were added to the tumor tissue (3 mL to each gram of tissue), and homogenate at 4 degrees Celsius. The homogenate (30 μL) was mixed with 15 μL blank solution, then extracted and protein precipitation with 200 μL of acetonitrile containing IS (internal standard, dexamethasone). After vortexed for 30 s, the samples were centrifuged at 4 degrees Celsius, 3900 rpm for 15 minutes. The supernatant was diluted 3 times with water and 2 μL of diluted supernatant was injected into the LC/MS/MS system for quantitative analysis (AB API 5500). The Q1 to Q3 mass transition (m/z, Da) were 393.11 to 373.10 for dexamethasone and 421.98 to 202.30 for test compound. […]
The concentration in the homogenate was quantified using standards prepared in control tumor tissues with concentrations range 0.5, 1, 2, 5, 10, 50, 100, 500, 1000 ng/mL. The determined concentration in the tumor homogenate was then back calculated to that in tumor tissue by multiplying with a dilution factor of 4.

The subject of series [2] is breast, ovarian, and lung cell lines. The series is described as follows: circBRIP1 levels in breast, ovarian, and lung cell lines. The format is cell-based. As to the method: Cells were plated at pre-determined cell densities in 384-well cell culture plates and incubated overnight in 37° C. at 5% CO2. […] Using TaqMan Multiplex Mastermix and thermal cycle conditions for the Quant Studio Thermocycler, qPCR was carried out as described above to quantify the level of circBRIP1.
Data analysis was performed by using the QuantStudio Thermocycler software to determine threshold Ct values. ΔCt for circBRIP1 is calculated by normalizing the target gene Ct to the GAPDH housekeeping gene Ct for each sample.
The inhibition activity (% Vehicle) is calculated by the following formulas, whereas: […]
An EC50 was then calculated using a 4-parameter logistic nonlinear regression model in Scigilian Analyze or GraphPad Prism, floating both the top and bottom parameters. […]

A further series concerns frozen PBMCs. Description: circBRIP1 level in frozen human PBMCs. The format is cell-based. Conditions: 10 μM, 24 hours, frozen PBMCs from three donors, vs vehicle; FIG. 8A. The procedure: As proof of concept, circBRIP1 levels were examined in peripheral blood mononuclear cells (PMBCs) using frozen PBMCs from donors after treatment with a DHX9 inhibitor.
Frozen PBMCs were thawed in a 37° C. water bath, washed, and reconstituted in media. The same number of cells were added to each well of 12-well plates and let rest for 2 hours before being subjected to testing conditions. Compound 1 was dissolved in DMSO at 10 mM as a stock solution, and diluted to a desired concentration. Frozen PBMCs from three donors or LS411N cells (positive control) were treated with 10 μM of Compound 1 or control vehicle for 24 hours. The circBRIP1 level was determined using methods essentially as described above.

`Cc1cccnc1-c1csc(C(=O)Nc2cc(Cl)cc(NS(C)(=O)=O)c2)c1` [Compound 1, N-(3-chloro-5-methanesulfonamidophenyl)-4-(3-methylpyridin-2-yl)thiophene-2-carboxamide]: the “correlation of tumor drug exposure to circBRIP1 induction” value in series [1] is reported as “correlate to circBRIP1 induction”. In addition, the circBRIP1 levels result in series [2] is “upregulated in breast, ovarian, and lung cell lines”. Also, the “circBRIP1 level in PBMCs” value in the series on frozen PBMCs is “significantly elevated”.

For the origin of these results see US20260297679A1, “ASSAYS FOR MONITORING INHIBITION OF RNA HELICASE DHX9” (ACCENT THERAPEUTICS, INC., priority 2023, published 2026).
